The text below walks through data of patent US9809521B2, “Cannabidinoid derivatives” (priority 2011, dated 2017).

The structures appear in SMILES notation. “Also recorded” adds a separate entry of the source. Like-named read-outs stand apart in the source and are kept apart here. Marks after values point to notes of the source that are not given here.

For series [1], the system named is MDA-MB436 cells. The series can be described thus: MTT cell proliferation assay. To be noted: read-out: IC50, antiproliferative, MDA-MB436.
Series [2] relates to MDA-MB231 cells. The series can be described thus: MTT cell proliferation/viability assay. From the text:
(§1) The structure of O-1442 and O-1663 are almost identical with the exception of one R group. A smaller subset of the same analogs, including O-1442 and O-1663, were further screened for their ability to inhibit 4T1 breast cancer cell viability in anticipation of running in vivo experiments in immune competent mice (TABLE 5).
(§2) To directly test whether the O-1663 CBD analog could co-target two distinct cannabinoid antitumor pathways, the effects of CBD and the O-1663 CBD analog on cell viability with multiple antagonists were probed (FIG. 25). […] The ability of the O-1663 CBD analog and CBD to inhibit invasion was next compared (FIG. 25, panel C).

Series [3] relates to SF126 cells. The series can be described thus: MTT cell proliferation assay. To be noted: read-out: IC50, SF126. For orientation: Tetrazolium assays rely on reduction of a dye to a coloured formazan, in cell work by metabolically active cells.
In series [4] the test system is Id-1. The series can be described thus: Quantitative Western analysis of Id-1 protein expression in MDA-MB231 cells. It is filed as cell-based, human. To be noted: 1.5 μM, two days. On the procedure: Quantitative Western analysis of Id-1 Expression in MDA-MB231 cells with CBD, Δ^9-THC, or WIN 55,212-2. The ability of CBD to regulate the expression of key genes that control breast cancer cell aggressiveness and invasiveness was determined.
SAR Analysis of Id-1 expression in MDA-MB231 cells with (Abn)-CBD receptor, Abn-CBD, O-1602, CP55,940, THC, CBN, or CBD. In order to determine the structure activity relationship (“SAR”) between cannabinoids and the inhibition of Id-1, MDA-MB231 cells were treated for two days with multiple cannabinoid compounds and Id-1 protein levels were assessed.
Quantitative Western analysis of Id-1 expression in MDA-MB231 cells and U251 cells with CBD or O-1663 CBD analog. […] MDA-MB231 breast cancer cells and U251 GBM cells were treated with 1.0 μM of cannabinoid for two days and then analyzed for Id-1 protein expression by quantitative Western analysis.

Series [5] concerns 4T1 cells. The series can be described thus: Cell viability assay. To be noted: Table 5; read-out: IC50, 4T1 cell viability. It is filed as cell-based, mouse.
From the text: as §1

In series [6] the test system is ROS. The series can be described thus: ROS measurement in MDA-MB231 cells. It is filed as cell-based, human. To be noted: two days; approximate IC50 for CBD and THC. The source says:
In culture, CBD-induced generation of ROS is a primary mechanism that leads to inhibition of cell growth, invasion, and survival across multiple cancers. The generation of ROS by CBD leads to the inhibition of Id-1 expression in breast cancer cells. […] The ability of CBD and the O-1663 CBD analog to stimulate the production of ROS was next compared. […] The involvement of CB2 receptors in the productions of ROS produced by CBD and the O-1663 CBD analog was next investigated.

Series [7] relates to U251 cells. In words: MTT cell proliferation assay. The settings on record: read-out: IC50, U251; seven day treatment; 95% confidence limits in brackets.
Series [8] concerns U87 cells. The series can be described thus: MTT cell proliferation assay. The settings on record: read-out: IC50, U87; seven day treatment; 95% confidence limits in brackets.
Series [9] has as its system caspase 3, 7, 9 and PARP. The series can be described thus: Western analysis of caspases and PARP in U251 cells. To be noted: THC 1.7 μM, CBD 0.4 μM, three days. The series is classed as cell-based, human. The source says:
Caspases play a primary role in the regulation of programmed cell death.

Series [10] has as its system MDA-MB231 cells. In words: Boyden chamber invasion assay. The series is classed as cell-based, human. The settings on record: 0.1, 1.0 or 1.5 μM. As for the experimental part: Boyden chamber MDA-MB231 cell invasion studies with CBD, Δ^9-THC, or WIN 55,212-2. Invasion is an important step towards breast cancer cell metastasis. Therefore, the effects of several cannabinoids were tested on their ability to modulate the migratory and invasiveness activity of the most aggressive human breast cancer cell line, MDA-MB231, in a reconstituted basement membrane in a Boyden chamber.
Assays using Id-1 promoter reporter transfected MDA-MB231 cells with CBD. To determine if Id-1 represented a key mediator of CBD effects in highly aggressive breast cancer cells, Id-1 was constitutively expressed into MDA-MB231 cells (+)Id-1 as described in FIG. 2. The ectopic Id-1 gene, which is not under the control of the endogenous promoter, was introduced in the cells using the pLXSN retroviral vector. As a control, cells were infected with an empty pLXSN vector (−)Id-1.
Boyden chamber MDA-MB231 cell invasion studies with CBD and O-1663 CBD analog. Boyden chamber studies for invasion by MDA-MB231 or U251 cells were performed with either CBD or O-1663 CBD analog.
as §2

The test system of series [11] is U251 cells. The series can be described thus: Apoptosis (annexin staining, FACS). The series is classed as cell-based, human. As for the experimental part: Apoptosis: Cells were grown in 6 well culture dishes and were treated with compounds of the disclosure every 24 hours for three days. […] The labeled cells were analyzed by flow cytometry. Cell Flow Cytometry in combination with PI and annexin staining was used to quantify the percentage of cells undergoing apoptosis in control and treatment groups. Percent control was calculated as annexin positive staining in treated cells/control cells×100. PI staining was used to distinguish necrotic cells from those undergoing apoptosis.
(§3) Albeit, the magnitude of these effects was reduced compared to those observed with the combination treatment.
The concentrations of the individual cannabinoids (THC and CBD) were next increased in order to attempt to match levels of apoptosis produced by the combination treatment. The purpose of these experiments was to determine whether the compounds alone recruited similar pathways as compared to the combination of THC and CBD. […] However, THC alone could not produce the level of apoptosis observed with the combination treatment (FIG. 23, panel A and B).

For series [12], the system named is U251 cells. The series can be described thus: Boyden chamber invasion assay. It is filed as cell-based, human. From the text:
Boyden chamber U251 cell invasion studies with CBD and/or Δ^9-THC. In addition to uncontrolled cell growth, a hallmark phenotype of aggressive GBM tumor cells is their ability to migrate away for the primary tumor of origin and invade into neighboring CNS tissue.

The test system of series [13] is U251 cells. In words: Cell cycle analysis (PI staining, FACS). The settings on record: THC 1.7 μM, CBD 0.4 μM. The series is classed as cell-based, human. As for the experimental part:
Cell cycle analysis: U251 cells were grown in Petri dishes (100 mm×15 mm) and received drug treatments for 2 days. On the third day, the cells were harvested and centrifuged at 1200 rpm for 5 minutes. The pellet was washed 1× with PBS+1% BSA, and centrifuged again. The pellet was re-suspended in 0.5 ml of 2% paraformaldehyde (diluted with PBS) and left to fix overnight at room temperature. The next day the cells were pelleted and re-suspended in 0.5 ml 0.3% Triton in PBS and incubated for 5 minutes at room temperature. The cells were then washed 2 times with PBS+1% BSA. The cells were finally suspended in PBS (0.1% BSA) with 10 ug/ml Propidium Iodide and 100 μg/ml RNAse. The cells were incubated for 30 minutes at room temperature before being stored at 4° C. Cell cycle was measured using a FACS Calibur using Cell Quest Pro and Modfit software.
Apoptosis Studies using U251 cells with Δ^9-THC and/or CBD. […] Therefore, U251 cells were treated with THC and CBD alone or with the combination of the two, and cell cycle was analyzed using cell flow cytometery (FIG. 20). […] Additionally, there was an increase in the population of cells in the G2/M phase. These changes in G1, S and G2/M phase are hallmarks of cell cycle arrest.
as §3

Series [14] has as its system pERK, JNK, p38 MAPK. In words: Western analysis of MAPK activity in U251 cells.
The mark [15] stands for this setting: Homo sapiens, MDA-MB-231, 72 h, read-out: IC50, antiproliferative, MDA-MB231.
The mark [16] stands for this setting: treated for three days, MTT, confidence limits in brackets.
[17] abbreviates: read-out: IC50, antiproliferative, MDA-MB231, treated for three days, MTT, confidence limits in brackets.
Setting [18] is: seven day treatment, 95% confidence limits in brackets.

A word on the IC50: it is the point on the concentration scale where inhibition reaches its midpoint. For `CCCCCc1cc(O)c(C/C=C(\C)CCC=C(C)C)c(O)c1` [CBG, cannabigerol], the IC50 in series [1] (Homo sapiens, MDA-MB-436, 72 h) was found to be 2.1 µM; in [2] (setting [15]) it was 2.3 µM; in [3] (Homo sapiens, SF-126, 72 h), 1.6 µM.
`CCCCCCC(C)(C)c1ccc([C@@H]2C[C@H](O)CC[C@H]2CCCO)c(O)c1` [CP 55, 940]: in series [4], the “inhibition of Id-1 (structure activity relationship)” value is reported as “less effective than CBD; also recorded: small inhibition of Id-1; also recorded: partially inhibit Id-1”. Moreover, the IC50 in [1] (Homo sapiens, MDA-MB-436, 72 h) worked out at 1.3 µM; in [2] (setting [15]), 2.5 µM; in series [3] (Homo sapiens, SF-126, 72 h) it was 3.3 µM.
With `C=C(C)[C@@H]1CCC(C)=C[C@H]1c1c(C)cc(O)cc1O` [Compound 0-1602], in series [4], the “inhibition of Id-1 (structure activity relationship)” value is reported as “No inhibition of Id-1”.
Regarding `CCCCCCC(C)(C)c1cc(OC)c(C2(O)CCCC(C)C2)c(OC)c1` (stereo not drawn) [Compound O-2137], the “Percent inhibition of cell viability, MDA-MB231” value in series [2] (at 5 μM) worked out at 45%^a. Besides, in [5], the IC50 worked out at 3.5 µM.
On to `CCCCCc1cc(O)c2c(c1)OC(C)(C)[C@@H]1CCC(C)=C[C@@H]21` [THC, Δ^9-tetrahydrocannabinol], for which the “inhibition of Id-1 (structure activity relationship)” value in series [4] is recorded as “had no activity against Id-1; also recorded: No inhibition of Id-1”. Also, the IC50 was 2.5 µM in [1] (setting [16]); 1.1 µM in series [7]; 3 µM in [2] (read-out: IC50, MDA-MB231 cell viability, Table 5); 1.2 µM in series [2] (setting [17]); 1.6 µM in [8]; 0.085 µM in [12] (Boyden chamber, limits 49-150, read-out: predicted IC50, U251 cell invasiveness). Also, the IC50 in series [3] (setting [18]) was 0.9 µM; in series [3] (three day treatment, Table 3), 2.5 µM; in series [5], 2.3 µM. Besides, the “generation of ROS” value in series [6] is reported as “no significant increase in ROS”. Besides, the “caspase 3, 7, 9 and PARP” value in [9] is “Small increases in the activity of caspase 7, caspase 9 and PARP but not caspase 3”. For the same molecule, the “invasion of MDA-MB231 cells” value in series [10] was “significantly reduced the invasion”. Moreover, the “block of apoptosis by CB2 antagonist SR144528” value in [11] (0.5 μM SR144528, combination 1.7/0.4 μM, 2.5 μM THC, 2.0 μM CBD) was “partially blocked by the CB2 antagonist”. The “block of apoptosis by α-tocopherol” value in series [11] (20 μM α-tocopherol, combination 1.7/0.4 μM, 2.5 μM THC, 2.0 μM CBD) is reported as “completely blocked by α-tocopherol”. Further, in series [11] (THC 1.7 μM, CBD 0.4 μM, three days), the “apoptosis (annexin)” value is “did not produce significant changes in apoptosis”. Also, in [12], the “invasiveness of U251 cells” value was “effectively inhibited the invasiveness of U251 cells”. For the same molecule, in [13], the cell cycle phases result was “increases in the population of cells in G1 and G2/M phase and decreases in cells in S phase”. The “p-ERK, higher concentrations alone” value in series [14] (2.5 μM Δ^9-THC, 2.0 μM CBD, three days) is recorded as “had no effect on p-ERK activity”. Besides, in series [14] (THC 1.7 μM, CBD 0.4 μM, two days), the pERK result is given as “no changes in pERK were observed”.
Consider `C=C(C)[C@@H]1CCC(C)=C[C@H]1c1c(O)cc(O)cc1CCCCC` [Abn-CBD], for which the “inhibition of Id-1 (structure activity relationship)” value in [4] was “No inhibition of Id-1”.
The same measure, in the same setting: the same measure for `CCCCCc1cc(O)c2c(c1)OC(C)(C)c1ccc(C)cc1-2` [CBN, cannabinol]: “partially inhibit Id-1”.
As to `Cc1c(C(=O)c2cccc3ccccc23)c2cccc3c2n1[C@H](CN1CCOCC1)CO3` [WIN 55, 212-2], the IC50 in series [1] (setting [16]) was found to be 2.4 µM; in series [7], 1.1 µM; in series [2] (setting [17]), 1.7 µM; in [8], 0.77 µM; in series [3] (setting [18]), 0.84 µM; in series [3] (three day treatment, Table 3), 1.3 µM. Further, the “invasion of MDA-MB231 cells” value in [10] was “significantly reduced the invasion”.
